Read-outs that look alike come from different tables or passages of the source.
What was measured:
P. batsensis [1] = experiment: Antibacterial activity (growth inhibition, OD600); type: cell-based, Pseudo-oceanicola batsensis DSM 15984; conditions: 48 h; for inhibition at 15.6 µg/mL: 15.60 µg/mL
Description: (§1) To assess antimicrofouling activity, we selected five marine bacterial species as models: Marinobacter hydrocarbonoclasticus DSM 8798 (ATCC 49840), C. marina DSM 4741, Phaeobacter inhibens DSM 17,395, Pseusooceanicola batsensis DSM 15,984, and Micrococcus luteus DSM 20030 (ATCC 4698) ([Michael et al., 2016]). These strains, sourced from DSMZ (Leibniz Institute DSMZ—German Collection of Microorganisms and Cell Cultures), were cultured in liquid marine broth (Carl Roth GmbH, Karlsruhe, Germany) with agitation at 180 rpm or on agar-supplemented marine broth. Incubation temperatures were set at 28°C for M. hydrocarbonoclasticus and Cobetia marina, 30°C for P. inhibens and P. batsensis, while M. luteus was maintained at 37°C in Brain Heart Infusion broth (BHI, Becton Dickinson, GmbH, Heidelberg, Germany) under similar agitation conditions.
The antibacterial efficacy of compounds (1) and (2) was assessed in 96-well polystyrene flat-bottom microplates (Nunclon Delta Surface, Thermo Scientific, Roskilde, Denmark) following established procedures ([Bauermeister et al., 2019]). In the initial screening, bacterial overnight cultures were diluted to an optical density (OD600nm) of 0.2 and incubated statically at appropriate temperatures. The cultures were treated with the following final concentrations per well: 31.25, 15.60, 7.81, 3.91, 1.95, and 0.98 μg/mL (2-fold serial dilutions) of the compounds, solubilized in DMSO, or left untreated. After 24 h (M. hydrocarbonoclasticus, C. marina) or 48 h (P. batsensis, P. inhibens, M. luteus) incubation, optical density at 600 nm (OD600) was measured using a Molecular Devices Spectra Max 190. Growth inhibition percentages were calculated relatively to untreated bacterial species, using DMSO as a negative control. CuSO4 (0.16 μg/mL), a recognized antifouling agent, was used as positive control. All assays were conducted in triplicate, and the results represent the mean and standard error of the mean (SEM). Statistical analysis was carried out using GraphPad Prism 8.0.2 (San Diego, CA, United States), employing one-way ANOVA followed by Dunnett’s multiple comparisons test against the negative control.

[2] = test system: Phaeodactylum tricornutum; experiment: Algal growth inhibition test (OECD 201, ISO-10253); type: cell-based
Description: (§2) The in vivo evaluation of compounds (1) and (2) for acute toxicity was performed towards marine bacterium Aliivibrio fischeri, and planktonic crustacean Daphnia magna. The chronic ecotoxicity tests were evaluated using algae Pseudokirchneriella subcapitata and Phaeodactylum tricornutum.
Freshwater and marine algal growth inhibition was assessed using P. subcapitata and P. tricornutum according to OECD Guideline 201 procedures (“Alga, Growth Inhibition Test”), ISO-8692 (“Water quality–Fresh water algal growth inhibition test with unicellular green algae”) and ISO-10253. Briefly, the algae cells were de-immobilized from algal beads using Matrix dissolving medium (Microbiotests), according to the manufacturer’s instructions, and grown in flasks containing algal culturing medium which was prepared following the OECD Guideline 201 and ISO-8692. Flasks with algae were kept for 7 days under light with orbital agitation. When the algae culture had sufficient cells, as verified by the optical density at 670 nm, these were tested at an initial cell density of 1 × 10^6 cells/mL in algal culturing medium. Madeirone (1) and neomarinone (2) were dissolved in DMSO and tested at the concentrations of 100, 50, 25, 12.5, 6.25, 3.13, and 1.56 μg/mL. The algae were cultured in microplates in triplicate and were kept for 4 days under light with orbital agitation. […] Each experiment was performed in triplicate and the results of two independent experiments with <10% SD are presented. Growth inhibition calculations were performed using cell numbers (biomass), as determined by a calibration line. Potassium dichromate (K2Cr2O7) was used as a positive control.

P. batsensis [3] = experiment: Antibiofilm activity (inhibition of biofilm formation); type: cell-based, Pseudo-oceanicola batsensis DSM 15984; conditions: for inhibition at 0.98 µg/mL / inhibition at 1.95 µg/mL / inhibition at 3.91 µg/mL / inhibition at 7.81 µg/mL / inhibition at 15.6 µg/mL / inhibition at 31.25 µg/mL: 48 h; for inhibition at 15.6 µg/mL: 15.60 µg/mL
Description: as §1
The antibiofilm potential of compounds (1) and (2) against the five marine bacterial species was investigated in 96-well polystyrene flat-bottom microplates (Nunclon Delta Surface, Thermo Scientific, Roskilde, Denmark), as described previously ([Bauermeister et al., 2019]; [Pereira et al., 2020]). In the initial screening, bacterial overnight cultures were diluted to an OD600 of 0.2 and incubated statically at appropriate temperatures. The cultures were tested at 31.25, 15.60, 7.81, 3.91, 1.95, 0.98 μg/mL concentrations (2-fold serial dilutions) of compounds (1) and (2), solubilized in DMSO, or left untreated. After 24 h (M. hydrocarbonoclasticus, C. marina) or 48 h (P. batsensis, P. inhibens, M. luteus) incubation, OD600 was measured. The planktonic cells and media were discarded, and the wells were washed twice with deionized water. Biofilms were fixed, stained, and quantified by measuring the OD600 after solubilization with acetic acid. Biofilm inhibition percentages were calculated relative to untreated bacterial species, using DMSO as a negative control and CuSO4 (0.16 μg/mL), as a positive control. All assays were performed in triplicate, and the results represent the mean and standard error of the mean (SEM). Statistical analysis was conducted using GraphPad Prism 8.0.2, employing one-way ANOVA followed by Dunnett’s multiple comparisons test against the negative control.

Daphnia magna = conditions: 100 µg/mL
Description: as §2
The immobilization of D. magna at 24 h and 48 h was studied following a micro adaptation of the OECD Guideline 202 procedures (“Daphnia sp., Acute Immobilisation Test and Reproduction Test”), using the Daphtoxkit F (Microbiotests, Gent, Belgium). Firstly, the ISO matrix medium was prepared, aerated and adjusted to pH 7. Next, the neonate daphnids were incubated for 72 h at 20 ± 1°C with light and fed spirulina 2 h prior to use, according to the manufacturer’s instructions. […] For the miniaturization of the procedure, one daphnid neonate was exposed to each compound in 10 mL sterile tubes containing 2 mL of ISO matrix medium, with the compounds at the determined concentrations. The assays were performed in triplicate.

| Structure (SMILES) | inhibition at 0.98 µg/mL (P. batsensis [1]; 0.98 µg/mL) [%] | inhibition at 1.95 µg/mL (P. batsensis [1]) [%] | inhibition at 3.91 µg/mL (P. batsensis [1]) [%] | inhibition at 7.81 µg/mL (P. batsensis [1]) [%] | inhibition at 15.6 µg/mL (P. batsensis [1]) [%] | inhibition at 31.25 µg/mL (P. batsensis [1]) [%] | Inhibition (%) P. tricornutum (growth) ([2]; 25 µg/mL) [%] | Inhibition (%) P. tricornutum (growth) ([2]; 50 µg/mL) [%] | Inhibition (%) P. tricornutum (growth) ([2]; 100 µg/mL) [%] | inhibition at 0.98 µg/mL (P. batsensis [3]) [%] | inhibition at 1.95 µg/mL (P. batsensis [3]) [%] | inhibition at 3.91 µg/mL (P. batsensis [3]) [%] | inhibition at 7.81 µg/mL (P. batsensis [3]) [%] | inhibition at 15.6 µg/mL (P. batsensis [3]) [%] | inhibition at 31.25 µg/mL (P. batsensis [3]) [%] | Growth inhibition (%) P. batsensis (P. batsensis [1]; 0.98 µg/mL) | Inhibition (%) P. tricornutum (growth) ([2]; 12.5 µg/mL) [%] | Biofilm inhibition, up to (highest over tested concentrations) P. batsensis (P. batsensis [3]; 0.98-31.25 µg/mL tested) | Inhibition (%) D. magna (immobilization) (Daphnia magna; listed as Neomarinone (2)) [%] | Inhibition (%) D. magna (immobilization) (Daphnia magna; listed as neomarinone (2)) [%] |
| --- | --- | --- | --- | --- | --- | --- | --- | --- | --- | --- | --- | --- | --- | --- | --- | --- | --- | --- | --- | --- |
| CC1=CCC[C@@H](C)[C@]1(C)CC[C@@]1(C)c2c(O)cc3c(c2O[C@@H]1C)C(=O)C=C(CO)C3=O (relative stereo) [compound 1, madeirone] | 20.7 ± 1.1 | 26.6 ± 0.8 | 31 ± 0.7 | 35.9 ± 0.5 | > 40 | > 40 | 45.7 | 58.0 | 86.9 | 10.8 ± 1.7 | 17.9 ± 2.4 | 24.9 ± 2.9 | 34.8 ± 2.7 | 49.1 ± 0.7 | 59.2 ± 0.4 | – | – | – | – | – |
| CC1=CCC[C@@H](C)[C@]1(C)CC[C@@]1(C)c2c(O)cc3c(c2O[C@@H]1C)C(=O)C(C)=C(O)C3=O [compound 2, neomarinone] | – | 0.3 ± 0.5 | 4.2 ± 0.3 | 0 | 0.9 ± 0.4 | 11.1 ± 0.4 | 38.5 | 40.8 | 77.7 | 11.7 ± 6.2 | 13.9 ± 5.7 | 19.4 ± 4 | 26.3 ± 5.9 | 34.9 ± 4.8 | 40.7 ± 4.7 | N.I. | 26.5 | up to 40% | 33.0 | 33 |
